Results on two compounds are retold here after paper PMC9668914, “Understanding VPAC receptor family peptide binding and selectivity” (Nature Communications, 2022).

In one assay the target is T1, VPAC1R (Homo sapiens, UniProt P32241).
T1 construct: An HA signal peptide was inserted in place of the native signal peptide of the receptors; HA signal peptide (replaces the native signal peptide) (N); 3C protease cleavage sites (between FLAG and receptor, and between receptor and His) (internal); expressed in transfected cells; host or cells: COS-7 (transient, PEI)
T1 sequence (P32241 31-457): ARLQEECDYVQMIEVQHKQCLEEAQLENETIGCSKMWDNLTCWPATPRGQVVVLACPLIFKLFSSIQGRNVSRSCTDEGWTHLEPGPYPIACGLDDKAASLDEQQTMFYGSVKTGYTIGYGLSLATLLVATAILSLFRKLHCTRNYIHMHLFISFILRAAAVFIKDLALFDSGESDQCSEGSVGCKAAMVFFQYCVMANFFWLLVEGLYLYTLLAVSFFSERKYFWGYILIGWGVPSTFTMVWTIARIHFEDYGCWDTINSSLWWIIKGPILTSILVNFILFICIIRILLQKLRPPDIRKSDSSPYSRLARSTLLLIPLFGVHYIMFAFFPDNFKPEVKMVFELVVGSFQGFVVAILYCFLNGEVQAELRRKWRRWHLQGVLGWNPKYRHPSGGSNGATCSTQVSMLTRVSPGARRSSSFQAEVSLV
In words: cAMP accumulation, chimeric peptides (Fig. 5a). The conditions noted are these: pEC50, VPAC1R cAMP, COS-7, three-parameter logistic. The class given is cell-based. The method, then: COS-7 cells were used for the chimeric peptide and cysteine mutagenesis pharmacological assays due to their lack of endogenous expression of PAC1R and receptor activity-modifying proteins, reported to potentially heterodimerize with PAC1R and VPAC1R[42]. […] COS-7 cells were plated in 10 cm dishes at approximately 1 million cells/dish. Cells were transfected 24 h later, with 5 µg of either WT or mutant PAC1R or VPAC1R receptor DNA. DNA and PEI (in a 1:6 ratio) were each diluted in 150 mM NaCl, and then combined and incubated for 10 min, before the mixture was added to the 10 cm dish. The next day, cells were harvested from the 10 cm dishes using Trypsin-Versene (PBS + 0.5 mM EDTA, pH 7.4), and were seeded at a density of 15,000 cells/well into clear 96-well culture plates and incubated overnight at 37 °C in 5% CO2 for cAMP accumulation assay the next day.
(§1) The reaction was terminated after 30 min by aspiration of the buffer and addition of 50 μl of ice-cold ethanol. Upon evaporation of ethanol, 75 μl of lysis buffer (5 mM HEPES, 0.1% (w/v) OVA, 0.3% (w/v) Tween20, pH 7.4) was added to the cells. cAMP detection was performed using a LANCE cAMP Detection Kit (PerkinElmer) for the construct validation and cysteine mutagenesis pharmacological assays and cAMP Gs HiRange kit (Cisbio) for the chimeric peptide pharmacological assays. The plates were read using an EnVision plate reader with excitation at 320 nm and emission at 615 nm[45].
(§2) The pharmacological data in figures and tables are reported as mean + standard error of the mean (SEM) with the number of biological replicates indicated in the figure and table legends where “n” represents the number of biological replicates performed. Concentration-response data were analyzed in GraphPad Prism version 9.4.0 using a three-parameter logistic curve to derive pEC50 values for the cyclic AMP accumulation. Competition binding data were analyzed in GraphPad Prism using the one site—Fit log IC50 model to derive pIC50 values. For the cysteine mutagenesis data, comparisons of multiple different groups were performed using one-way analysis of variance (ANOVA), followed by Dunnett’s post-hoc test with the control group being the WT receptor, with significance accepted at p < 0.05. For the chimeric peptide data, comparisons of multiple different groups were performed using one-way ANOVA, followed by Tukey’s post-hoc test, with significance accepted at p < 0.05.
In general terms: Cyclic AMP is a second messenger, typically raised through Gs and lowered through Gi signalling.

The target in a further assay is T2, PAC1R (Homo sapiens, UniProt P41586).
T2 construct: An HA signal peptide was inserted in place of the native signal peptide of the receptors; HA signal peptide (replaces the native signal peptide) (N); 3C protease cleavage sites (between FLAG and receptor, and between receptor and His) (internal); expressed in transfected cells; host or cells: COS-7 (transient, PEI)
T2 sequence (P41586 21-468): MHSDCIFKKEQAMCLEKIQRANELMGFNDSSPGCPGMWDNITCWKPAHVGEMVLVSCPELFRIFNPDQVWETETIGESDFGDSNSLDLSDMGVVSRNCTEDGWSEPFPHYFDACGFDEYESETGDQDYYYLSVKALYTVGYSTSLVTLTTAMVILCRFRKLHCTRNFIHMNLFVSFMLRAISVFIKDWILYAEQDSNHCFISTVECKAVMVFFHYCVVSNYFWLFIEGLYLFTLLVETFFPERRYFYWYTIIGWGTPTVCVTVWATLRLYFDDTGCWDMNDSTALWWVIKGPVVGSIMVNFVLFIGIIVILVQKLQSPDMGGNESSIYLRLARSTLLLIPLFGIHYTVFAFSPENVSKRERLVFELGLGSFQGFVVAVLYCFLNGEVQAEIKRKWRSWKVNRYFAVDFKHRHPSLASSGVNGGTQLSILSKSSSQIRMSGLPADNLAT
The assay can be described thus: cAMP accumulation, chimeric peptides (Fig. 5b). Format: cell-based. The settings on record: COS-7, three-parameter logistic, read-out: pEC50, PAC1R cAMP (converted).
Source text: An HA signal peptide was inserted in place of the native signal peptide of the receptors and a FLAG epitope was incorporated into the receptor N-terminus immediately after the signal peptide. A His tag was fused to C-terminus of the receptor. 3C protease cleavage sites were inserted between both the FLAG and His tags and the receptor. […] The following PAC1R and VPAC1R mutants were also generated using Quikchange mutagenesis: PAC1R C25A, PAC1R C219A, PAC1R C25A/C219A, VPAC1R C37A and VPAC1R C208A. For all PAC1R constructs, we used the PAC1R null (PAC1n) splice variant. A construct containing N-terminal NLuc immediately after the native signal peptide of PAC1R was also generated in pcDNA3.1.
COS-7 cells were used for the chimeric peptide and cysteine mutagenesis pharmacological assays due to their lack of endogenous expression of PAC1R and receptor activity-modifying proteins, reported to potentially heterodimerize with PAC1R and VPAC1R[42]. Cells were cultured in Dulbecco’s Modified Eagle’s Medium (DMEM) (Invitrogen) supplemented with 5% v/v heat-inactivated FBS at 37 °C and […] /5% CO2 in a humidified incubator. COS-7 cells were plated in 10 cm dishes at approximately 1 million cells/dish. Cells were transfected 24 h later, with 5 µg of either WT or mutant PAC1R or VPAC1R receptor DNA. DNA and PEI (in a 1:6 ratio) were each diluted in 150 mM NaCl, and then combined and incubated for 10 min, before the mixture was added to the 10 cm dish. The next day, cells were harvested from the 10 cm dishes using Trypsin-Versene (PBS + 0.5 mM EDTA, pH 7.4), and were seeded at a density of 15,000 cells/well into clear 96-well culture plates and incubated overnight at 37 °C in 5% CO2 for cAMP accumulation assay the next day.
as §1, §2

Read-outs that look alike come from different tables or passages of the source. No end group written: not given here.

For the compound `CC[C@H](C)[C@H](NC(=O)[C@H](C)NC(=O)[C@H](CC(=O)O)NC(=O)[C@H](CO)NC(=O)[C@@H](N)Cc1cnc[nH]1)C(=O)N[C@@H](Cc1ccccc1)C(=O)N[C@H](C(=O)N[C@@H](CC(=O)O)C(=O)N[C@@H](CO)C(=O)N[C@@H](Cc1ccc(O)cc1)C(=O)N[C@@H](CO)C(=O)N[C@@H](CCCNC(=N)N)C(=O)N[C@@H](Cc1ccc(O)cc1)C(=O)N[C@@H](CCCNC(=N)N)C(=O)N[C@@H](CCCCN)C(=O)N[C@@H](CCC(N)=O)C(=O)N[C@@H](CCSC)C(=O)N[C@@H](C)C(=O)N[C@H](C(=O)N[C@@H](CCCCN)C(=O)N[C@@H](CCCCN)C(=O)N[C@@H](Cc1ccc(O)cc1)C(=O)N[C@@H](CC(C)C)C(=O)N[C@@H](C)C(=O)N[C@@H](C)C(=O)N[C@H](C(=O)N[C@@H](CC(C)C)C(N)=O)C(C)C)C(C)C)[C@@H](C)O` [Ala4 PACAP27], the EC50 is 2.25 nM at VPAC1R (replicate n=1); 2.52 nM at VPAC1R (replicate n=2); 9.38 nM on VPAC1R (replicate n=3); 1.73 nM at VPAC1R (replicate n=4); 12.4 nM on VPAC1R (replicate n=5); 3.48 nM on PAC1R (replicate n=1). Besides, the EC50 was 1.67 nM at PAC1R (replicate n=2), 2.05 nM at PAC1R (replicate n=3), 8.65 nM at PAC1R (replicate n=4) and 3.32 nM at PAC1R (replicate n=5).

On to “HSDGVFTDNYTRLRKQMAVKKYLNSILN-NH2 [Gly4 VIP]”, for which the EC50 on VPAC1R (replicate n=1) was 1.26 nM; at VPAC1R (replicate n=2) it was 0.995 nM; at VPAC1R (replicate n=3), 1.64 nM; at VPAC1R (replicate n=4) it was 1.7 nM; on VPAC1R (replicate n=5), 1.39 nM; at PAC1R (replicate n=1), 28.7 nM. The EC50 on PAC1R (replicate n=2) was 12 nM; on PAC1R (replicate n=3), 12.6 nM; at PAC1R (replicate n=4), 23.6 nM; on PAC1R (replicate n=5), 7.96 nM.
